One compound from patent publication US20230068010A1, “FORMULATION OF INSECTICIDAL MIXTURES COMPRISING GLYCOL ETHER SOLVENTS” (Bayer Aktiengesellschaft, priority 2019, published 2023) can be followed below.

The series in a line: Cuticle penetration test. It is filed as in vitro ADME, apple tree. The text has this: This test measures the penetration of active ingredients through enzymatically isolated cuticles of apple tree leaves.
Leaves that have been cut off apple trees in the developed state and isolated by the method described in Schönherr and Riederer (Schönherr, J., Riederer, M. (1986)) are used. Only the cuticles of the top sides of the leaves that are free of stomata and hair are used further.
For membrane transport studies, the cuticular membranes thus obtained are placed into stainless steel diffusion cells (=transport chambers). For this purpose, the cuticles are placed with tweezers onto the middle of the silicone grease-smeared edges of the diffusion cells and sealed with a likewise greased ring. The arrangement is chosen such that the morphological outside of the cuticles is directed outward, i.e. toward the air, while the original inside faces the inside of the diffusion cell. The diffusion cells are filled with water or with a mixture of water and solvent and buffered to the physiologically relevant pH of 5.5. The medium in the diffusion cells is supposed to simulate the apoplast, i.e. the natural absorption medium within the leaf. This method is of good suitability for systemic and mechanistic studies with the aim of understanding the effect of the formulations, adjuvants and solvents on penetration of the crop protection compositions.
The active ingredient concentration corresponds to the field application rate customary in practice. For preparation of the spray liquor the corresponding ingredients in the given amounts are given into tap water and homogenized by mixing.
After the spray liquors have been applied, the water is allowed to evaporate in each case, then the chambers are inverted and they are placed into thermostated tanks, wherein air at a defined air humidity and temperature is blown onto the outside of the cuticles in each case. The penetration that sets in therefore takes place at a relative air humidity of 56% and a set temperature of 25° C. At regular intervals, an autosampler is used to take samples and the content of penetrated active ingredient is measured by means of HPLC. The numbers reported are average values from 5 to 10 individual measurements in each case.

Each structure is given as a SMILES string.

On to `O=C1C=C(N(Cc2ccc(Cl)nc2)CC(F)F)CO1` [Flupyradifurone], for which the “Penetration after 24 h” value (entry 1: spray solution 0.1 g/L Compd I-2 + 0.5 g/L flupyradifurone, no additives, 25° C., 56% r.h.) turned out to be 5.1%; the “Penetration after 24 h” value (entry 1: spray solution 0.1 g/L Compd I-2 + 0.5 g/L flupyradifurone, no additives, 25° C., 56% r.h., listed as flupyradifurone) was “barely any, if any, cuticle penetration”; the “Penetration after 24 h” value (entry 2: 0.1 g/L Compd I-2 + 0.5 g/L flupyradifurone + DAHP 1.6 g/L, 25° C., 56% r.h.) is 29.2%; the “Penetration after 24 h” value (entry 3: 0.1 g/L Compd I-2 + 0.5 g/L flupyradifurone + Antarox B/848 1.3 g/L, 25° C., 56% r.h.) turned out to be 73%; the “Penetration after 24 h” value (entry 4: 0.1 g/L Compd I-2 + 0.5 g/L flupyradifurone + Antarox B/848 1.3 + DAHP 1.6 g/L, 25° C., 56% r.h.) turned out to be 82.8%; the “Penetration after 24 h” value (entry 5: as entry 4 + 1.8 g/L Propylenglycolmonomethylether (B) + 1.8 g/L Propylenglycol (C)) turned out to be 87.2%. Further, the “Penetration after 24 h” value (entry 6: as entry 4 + 1.8 g/L Propylenglycolmonomethylether (B) + 1.8 g/L Dipropylenglycol (D)) turned out to be 100%, the “Penetration after 24 h” value (entry 7: as entry 4 + 2.1 g/L Dipropylenglycolmonomethylether (A) + 1.4 g/L Propylenglycolmonomethylether (B)) turned out to be 100% and the “Penetration after 24 h” value (entry 8: as entry 4 + 2.5 g/L Dipropylenglycolmonomethylether (A) + 1.2 g/L Propylenglycol (C)) amounted to 95%.
